# Data as given in US8940909B2, “Indicator platform” (Biosynth AG, priority 2009, dated 2015).
# Key:
# [1] = system: bacteria producing various biomarker enzymes; experiment: IO staining of colonies of bacteria producing various biomarker enzymes (Table IVc); format: cell-based; settings: for F: Fluorescence of colonies (hue): hue of fluorescence of stained colonies, 24 h on agar containing the indicator (Table IVc)
# [2] = system: beta-galactosidase positive Eschericha coli (NM1); experiment: IO staining of bacterial colonies on Nutrient Agar (color, fluorescence, localization, growth); on C: Color of colonies (strength): key: −: absent; +/−: weak; +: strong; ++: very strong; on F: Fluorescence of colonies (strength): key: −: absent; +/−: weak; +: strong; ++: very strong; on G: Growth of colonies: key: −: absent; +/−: weak; +: strong; ++: very strong; on L: Localization of stain on colonies: key: −: absent; +/−: weak; +: strong; ++: very strong; format: cell-based, E. coli; settings: 150 mg/l substrate and 100 mg/l IPTG
# Description: Nutrient Agar (5 g/l peptone, 5 g/l NaCl, 2 g/l yeast extract, 1 g/l beef extract, 13 g/l agar, pH 7.4) was autoclaved and allowed to cool to 50° C. Then indicators were added to final concentrations of 150 mg/l (from a 20 mg/ml stock solution in DMF).
# Optionally IPTG was added to 100 mg/l (from a 100 mg/ml stock solution in H2O) and plates were poured. Agar plates were inoculated with cultures of beta-galactosidase positive Eschericha coli (NM1) or beta-galactosidase negative Salmonella enteritidis (RKI 05/07992) (pre-grown on nutrient broth for 8-18 hours) and incubated at 37° C. Plates were inspected at 16, 20, 24 and 48 hours and pictures were recorded at 18, 24, and 48 hours with a Digistore 2 Image documentation system (CAMAG) under white light.
# A considerable number of indicators molecules (Table IVa, IVb) and a selection of labile groups (Table IVc) were tested with various microbial species producing different biomarker enzymes (external stimuli, eS). The color of stains ranges from yellow to red.
# Plating media from Example 10 were examined under 366 nm UV irradiation at 16, 20, 24 and 48 hours for fluorescence by means of Digistore 2 Image documentation system (CAMAG). Loops of bacterial cells, grown for 48 hours on Nutrient Agar plates containing 150 mg/l beta-D-galactosidase indicator and 100 mg/l IPTG, were directly streaked into wells of black clear bottom microtiter plates. Fluorescence scans were recorded on a Spectramax M5 (Molecular Devices).
# [3] = Bacillus cereus strain 51, plc +, 24 h on Tryptic Soy Agar, 0.78 mM PC PLC Indicator, 3.2 g/l BSA, 0.05% Tween80, 5 mM MnCl2
# [4] = Bacillus cereus strain 191, plc +, 24 h on Tryptic Soy Agar, 0.78 mM PC PLC Indicator, 3.2 g/l BSA, 0.05% Tween80, 5 mM MnCl2
# [5] = Bacillus cereus strain 192, plc +, 24 h on Tryptic Soy Agar, 0.78 mM PC PLC Indicator, 3.2 g/l BSA, 0.05% Tween80, 5 mM MnCl2
# [6] = Bacillus cereus strain 289, plc +, 24 h on Tryptic Soy Agar, 0.78 mM PC PLC Indicator, 3.2 g/l BSA, 0.05% Tween80, 5 mM MnCl2
# [7] = Bacillus mycoides strain 64, plc +, 24 h on Tryptic Soy Agar, 0.78 mM PC PLC Indicator, 3.2 g/l BSA, 0.05% Tween80, 5 mM MnCl2
# [8] = Bacillus thuringiensis strain 66, plc +, 24 h on Tryptic Soy Agar, 0.78 mM PC PLC Indicator, 3.2 g/l BSA, 0.05% Tween80, 5 mM MnCl2
# [9] = Escherichia coli strain 61, plc +/−, 24 h on Tryptic Soy Agar, 0.78 mM PC PLC Indicator, 3.2 g/l BSA, 0.05% Tween80, 5 mM MnCl2
# [10] = Escherichia coli strain 270, plc +/−, 24 h on Tryptic Soy Agar, 0.78 mM PC PLC Indicator, 3.2 g/l BSA, 0.05% Tween80, 5 mM MnCl2
# [11] = Listeria monocytogenes (4b) strain 290, plc +, 24 h on Tryptic Soy Agar, 0.78 mM PC PLC Indicator, 3.2 g/l BSA, 0.05% Tween80, 5 mM MnCl2
# [12] = Pseudomonas aeruginosa strain 168, plc +, 24 h on Tryptic Soy Agar, 0.78 mM PC PLC Indicator, 3.2 g/l BSA, 0.05% Tween80, 5 mM MnCl2
# [13] = Pseudomonas aeruginosa strain 168, plc +, 24 h on Tryptic Soy Agar, 0.78 mM PC PLC Indicator, 3.2 g/l BSA, 0.05% Tween80, 5 mM MnCl2, natural color, same on agar without substrate
# [14] = Pseudomonas aeruginosa strain 168, plc +, 24 h on Tryptic Soy Agar, 0.78 mM PC PLC Indicator, 3.2 g/l BSA, 0.05% Tween80, 5 mM MnCl2, natural fluorescence, same on agar without substrate
# [15] = Escherichia coli strain 61, glucuronidase +, 24 h on Nutrient Agar, 0.45 mM beta-D-Glucuronidase Indicator
# [16] = Escherichia coli strain 62, glucuronidase +, 24 h on Nutrient Agar, 0.45 mM beta-D-Glucuronidase Indicator
# [17] = Escherichia coli strain 270, glucuronidase +, 24 h on Nutrient Agar, 0.45 mM beta-D-Glucuronidase Indicator
# [18] = Klebsiella pneumoniae strain 164, glucuronidase −, 24 h on Nutrient Agar, 0.45 mM beta-D-Glucuronidase Indicator
# [19] = Bacillus cereus strain 289, 24 h on Nutrient Agar, 0.52 mM C1-Esterase Indicator
# [20] = Escherichia coli strain 270, 24 h on Nutrient Agar, 0.52 mM C1-Esterase Indicator
# [21] = Klebsiella pneumoniae strain 164, 24 h on Nutrient Agar, 0.52 mM C1-Esterase Indicator
# [22] = Enterobacter aerogenes strain 242, a-glucosidase −, 24 h on Nutrient Agar, 150 mg/l alpha-D-Glucosidase Indicator
# [23] = Enterobacter cloacae strain 245, a-glucosidase −, 24 h on Nutrient Agar, 150 mg/l alpha-D-Glucosidase Indicator
# [24] = Enterobacter sakazakii strain 141, a-glucosidase +, 24 h on Nutrient Agar, 150 mg/l alpha-D-Glucosidase Indicator
# [25] = Enterobacter sakazakii strain 142, a-glucosidase +, 24 h on Nutrient Agar, 150 mg/l alpha-D-Glucosidase Indicator
# [26] = Escherichia coli strain 270, a-glucosidase −, 24 h on Nutrient Agar, 150 mg/l alpha-D-Glucosidase Indicator
# [27] = Shigella sonnei strain 133, a-glucosidase −, 24 h on Nutrient Agar, 150 mg/l alpha-D-Glucosidase Indicator
molecule,measurement,setting,value
"1-[2-(2,4-Dimethoxybenzoyl)phenyl]-1H-indol-3-yl choline phosphate [Indicator I25d]",C: Color of colonies,[1]; [3],+
same,F: Fluorescence of colonies,[1]; [3],++
same,G: Growth of colonies,[1]; [3],+
same,C: Color of colonies,[1]; [4],+
same,F: Fluorescence of colonies,[1]; [4],++
same,G: Growth of colonies,[1]; [4],+
same,C: Color of colonies,[1]; [5],++
same,F: Fluorescence of colonies,[1]; [5],++
same,G: Growth of colonies,[1]; [5],+
same,C: Color of colonies,[1]; [6],+
same,F: Fluorescence of colonies,[1]; [6],++
same,G: Growth of colonies,[1]; [6],+
same,C: Color of colonies,[1]; [7],+
same,F: Fluorescence of colonies,[1]; [7],++
same,G: Growth of colonies,[1]; [7],+
same,C: Color of colonies,[1]; [8],+
same,F: Fluorescence of colonies,[1]; [8],++
same,G: Growth of colonies,[1]; [8],+
same,C: Color of colonies,[1]; [9],+/−
same,F: Fluorescence of colonies,[1]; [9],+/−
same,G: Growth of colonies,[1]; [9],+
same,C: Color of colonies,[1]; [10],+/−
same,F: Fluorescence of colonies,[1]; [10],+/−
same,G: Growth of colonies,[1]; [10],+
same,C: Color of colonies,[1]; [11],−
same,F: Fluorescence of colonies,[1]; [11],−
same,G: Growth of colonies,[1]; [11],+
same,G: Growth of colonies,[1]; [12],+
same,C: Color of colonies,[1]; [13],y-g^1
same,F: Fluorescence of colonies,[1]; [14],b^2
same,F: Fluorescence of colonies (hue),[1],y-g
"5-Bromo-4-chloro-1H-indol-3-yl choline phosphate [Indicator I4d, reference compound]",C: Color of colonies,[1]; [3],+/−
same,F: Fluorescence of colonies,[1]; [3],−
same,G: Growth of colonies,[1]; [3],+
same,C: Color of colonies,[1]; [4],+/−
same,F: Fluorescence of colonies,[1]; [4],−
same,G: Growth of colonies,[1]; [4],+
same,C: Color of colonies,[1]; [5],++
same,F: Fluorescence of colonies,[1]; [5],−
same,G: Growth of colonies,[1]; [5],+
same,C: Color of colonies,[1]; [6],−
same,F: Fluorescence of colonies,[1]; [6],−
same,G: Growth of colonies,[1]; [6],+
same,C: Color of colonies,[1]; [7],+
same,F: Fluorescence of colonies,[1]; [7],−
same,G: Growth of colonies,[1]; [7],+
same,C: Color of colonies,[1]; [8],+/−
same,F: Fluorescence of colonies,[1]; [8],−
same,G: Growth of colonies,[1]; [8],+
same,C: Color of colonies,[1]; [9],+
same,F: Fluorescence of colonies,[1]; [9],−
same,G: Growth of colonies,[1]; [9],+
same,C: Color of colonies,[1]; [10],+/−
same,F: Fluorescence of colonies,[1]; [10],−
same,G: Growth of colonies,[1]; [10],+
same,C: Color of colonies,[1]; [11],−
same,F: Fluorescence of colonies,[1]; [11],−
same,G: Growth of colonies,[1]; [11],+
same,G: Growth of colonies,[1]; [12],+
same,C: Color of colonies,[1]; [13],y-g^1
same,F: Fluorescence of colonies,[1]; [14],b^2
same,F: Fluorescence of colonies (hue),[1],−
"O=C([O-])[C@H]1O[C@@H](Oc2c[nH]c3cc(Cl)ccc23)[C@H](O)[C@@H](O)[C@@H]1O.[Na+] [Indicator I3f, 6-Chloro-1H-indol-3-yl-beta-D-glucuronide sodium salt, reference compound]",C: Color of colonies,[1]; [15],+
same,F: Fluorescence of colonies,[1]; [15],−
same,G: Growth of colonies,[1]; [15],+
same,C: Color of colonies,[1]; [16],+
same,F: Fluorescence of colonies,[1]; [16],−
same,G: Growth of colonies,[1]; [16],+
same,C: Color of colonies,[1]; [17],+
same,F: Fluorescence of colonies,[1]; [17],−
same,G: Growth of colonies,[1]; [17],+
same,C: Color of colonies,[1]; [18],−
same,F: Fluorescence of colonies,[1]; [18],−
same,G: Growth of colonies,[1]; [18],+
"CC(=O)Oc1c[nH]c2ccc(Br)c(Cl)c12 [Indicator I4c, 5-Bromo-4-chloro-1H-indol-3-yl acetate, reference compound]",C: Color of colonies,[1]; [19],−
same,F: Fluorescence of colonies,[1]; [19],−
same,G: Growth of colonies,[1]; [19],−
same,C: Color of colonies,[1]; [20],−
same,F: Fluorescence of colonies,[1]; [20],−
same,G: Growth of colonies,[1]; [20],+/−
same,C: Color of colonies,[1]; [21],+
same,F: Fluorescence of colonies,[1]; [21],−
same,G: Growth of colonies,[1]; [21],+
same,F: Fluorescence of colonies (hue),[1],−
"CC(=O)Oc1cn(-c2ccccc2C(=O)c2ccccc2)c2ccccc12 [Indicator I19c, 1-(2-Benzoylphenyl)-1H-indol-3-yl acetate]",C: Color of colonies,[1]; [19],++
same,G: Growth of colonies,[1]; [19],+
same,C: Color of colonies,[1]; [20],+/−
same,G: Growth of colonies,[1]; [20],+
same,C: Color of colonies,[1]; [21],+
same,G: Growth of colonies,[1]; [21],+
"O=C(c1ccccc1)c1ccccc1-n1cc(O[C@H]2O[C@H](CO)[C@@H](O)[C@H](O)[C@H]2O)c2ccc(Cl)cc21 [Indicator I21e, 1-(2-Benzoylphenyl)-6-chloro-1H-indol-3-yl-alpha-D-glucopyranoside]",C: Color of colonies,[1]; [22],−
same,F: Fluorescence of colonies,[1]; [22],−
same,G: Growth of colonies,[1]; [22],+
same,C: Color of colonies,[1]; [23],−
same,F: Fluorescence of colonies,[1]; [23],−
same,G: Growth of colonies,[1]; [23],+
same,C: Color of colonies,[1]; [24],+
same,F: Fluorescence of colonies,[1]; [24],+/−
same,G: Growth of colonies,[1]; [24],+
same,C: Color of colonies,[1]; [25],+
same,F: Fluorescence of colonies,[1]; [25],+/−
same,G: Growth of colonies,[1]; [25],+
same,C: Color of colonies,[1]; [26],−
same,F: Fluorescence of colonies,[1]; [26],−
same,G: Growth of colonies,[1]; [26],+
same,C: Color of colonies,[1]; [27],−
same,F: Fluorescence of colonies,[1]; [27],−
same,G: Growth of colonies,[1]; [27],+
same,F: Fluorescence of colonies (hue),[1],y-g
"O=C(c1ccccc1)c1ccccc1-n1cc(O[C@@H]2O[C@H](C(=O)[O-])[C@@H](O)[C@H](O)[C@H]2O)c2ccc(Cl)cc21.[Na+] [Indicator I21f, 1-(2-Benzoylphenyl)-6-chloro-1H-indol-3-yl-beta-D-glucuronide sodium salt]",C: Color of colonies,[1]; [15],+
same,F: Fluorescence of colonies,[1]; [15],+/−
same,G: Growth of colonies,[1]; [15],+
same,C: Color of colonies,[1]; [16],+
same,F: Fluorescence of colonies,[1]; [16],+/−
same,G: Growth of colonies,[1]; [16],+
same,C: Color of colonies,[1]; [17],+
same,F: Fluorescence of colonies,[1]; [17],+/−
same,G: Growth of colonies,[1]; [17],+
same,C: Color of colonies,[1]; [18],−
same,F: Fluorescence of colonies,[1]; [18],−
same,G: Growth of colonies,[1]; [18],+
same,F: Fluorescence of colonies (hue),[1],y-o
"O=C(c1ccccc1)c1ccc(Cl)cc1-n1cc(O[C@@H]2O[C@H](CO)[C@H](O)[C@H](O)[C@H]2O)c2ccc(Cl)cc21 [Indicator I23a, 1-(2-Benzoyl-5-chlorophenyl)-6-chloro-1H-indol-3-yl-beta-D-galactopyranoside]",F: Fluorescence of colonies (colour),"[2]; 24 h, 366 nm UV",green-yellow
same,C: Color of colonies (colour of stain),[2]; 24 h on Nutrient Agar,yellow
same,G: Growth of colonies,"[2]; E. coli, 24 h",+
same,L: Localization of stain on colonies,"[2]; E. coli, 24 h",+
same,F: Fluorescence of colonies (strength),"[2]; E. coli, 24 h, 366 nm UV",+
same,C: Color of colonies (strength),"[2]; E. coli, 24 h on Nutrient Agar",+
